From paper PMC4512978, “Synthesis and evaluation in rats of homologous series of [^18F]-labeled dopamine D2/3 receptor agonists based on the 2-aminomethylchroman scaffold as potential PET tracers” (EJNMMI Research, 2015)

Test system: D2/3R
Assay: Kinetic analysis of PET data (1TCM, 2TCM, Logan, SRTM);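 for 2TCM BPND change relative to control: Raclopride 1 mg/kg intravenous pretreatment versus saline controls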;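 for SRTM BPND change relative to control: Raclopride 1 mg/kg intravenous pretreatment versus saline controls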
Format: in vivo, Sprague-Dawley rats
Design: key to SRTM BPND / 1TCM BPND / 2TCM BPND (VT-based): BPND = VT(target)/VT(cerebellum) − 1 (or SRTM, cerebellum reference); SRTM BPND change relative to control / 1TCM BPND change relative to control / 2TCM BPND change relative to control / Logan BPND change relative to control: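 Raclopride 1 mg/kg intravenous pretreatment versus saline controls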; 1TCM VT / 2TCM VT: unit not given here
Method: Kinetic analysis is described using the nomenclature proposed by Innis et al.. ROI TACs of [^18F]FEt-AMC13 were analyzed with one-tissue and two-tissue compartmental models of reversible binding (1TCM and 2TCM, respectively) to obtain individual rate constants. From these, the regional distribution volumes (VT) were calculated and compared to those obtained with Logan graphical analysis. Binding potentials (BPND) were calculated from the distribution ratios as VT (target) / VT (cerebellum) – 1, or estimated with the simplified reference tissue model (SRTM) using the cerebellum as reference region.
Metabolite-corrected plasma-derived arterial input function and whole blood time-activity curve were used for Logan, 1TCM, and 2TCM analyses. Fractional cerebral blood volume was set to 3.6 % [27]. For one rat in the raclopride-treated group, no input curves could be obtained; therefore, its PET data were only analyzed with SRTM.
Degree of D2/3R-specific binding of the tracers was characterized by BPND (as given above) or the specific binding ratio (SBR) given as target region activity/cerebellar activity - 1. Both were calculated under control conditions and in response to the raclopride challenge.

[1] = Pituitary, raclopride, listed as [18F]FEt-AMC13
[2] = Striatum, raclopride, listed as [18F]FEt-AMC13
[3] = Thalamus, raclopride, listed as [18F]FEt-AMC13

Oc1ccc2c(c1)O[C@@H](CNCc1ccc(OCC[18F])cc1)CC2 [[^18F]FEt-AMC13]
SRTM BPND (Pituitary, raclopride): 0.55 ± 0.53 | SRTM BPND change relative to control (Pituitary, raclopride): −22% | 2TCM BPND change relative to control [1]: -23% | SRTM BPND [1]: 0.55±0.53 | SRTM BPND change relative to control [1]: –22% | 1TCM BPND (Striatum, control): 0.63 ± 0.08 | 1TCM VT (Striatum, control): 7.60±0.64 | 2TCM BPND (VT-based) (Striatum, control): 0.56 ± 0.05 | 2TCM VT (Striatum, control): 7.90±0.84 | Logan BPND (Striatum, control): 0.52 ± 0.01 | Logan VT (Striatum, control): 7.72±0.84 | SRTM BPND (Striatum, control): 0.51 ± 0.02 | 1TCM K1 (Striatum, control rat A): 0.45 ± 0.03 mL/g/min | 1TCM k2 (Striatum, control rat A): 0.05 ± 0.01 min⁻¹ | 2TCM K1 (Striatum, control rat A): 1.77 ± 0.62 mL/g/min | 2TCM k2 (Striatum, control rat A): 4.95 ± 3.00 min⁻¹ | 2TCM k3 (Striatum, control rat A): 1.34 ± 0.29 min⁻¹ | 2TCM k4 (Striatum, control rat A): 0.05 ± 0.01 min⁻¹ | 1TCM K1 (Striatum, control rat B): 0.49 ± 0.02 mL/g/min | 1TCM k2 (Striatum, control rat B): 0.06 ± 0.01 min⁻¹ | 2TCM K1 (Striatum, control rat B): 0.63 ± 0.14 mL/g/min | 2TCM k2 (Striatum, control rat B): 0.48 ± 0.68 min⁻¹ | 2TCM k3 (Striatum, control rat B): 0.81 ± 1.13 min⁻¹ | 2TCM k4 (Striatum, control rat B): 0.17 ± 0.07 min⁻¹ | 1TCM K1 (Striatum, control rat C): 0.47 ± 0.02 mL/g/min | 1TCM k2 (Striatum, control rat C): 0.07 ± 0.004 min⁻¹ | 2TCM K1 (Striatum, control rat C): 0.98 ± 0.85 mL/g/min | 2TCM k2 (Striatum, control rat C): 3.47 ± 8.55 min⁻¹ | 2TCM k3 (Striatum, control rat C): 2.81 ± 3.01 min⁻¹ | 2TCM k4 (Striatum, control rat C): 0.11 ± 0.08 min⁻¹ | 1TCM K1 (Striatum, control rat D): 0.51 ± 0.02 mL/g/min | 1TCM k2 (Striatum, control rat D): 0.07 ± 0.01 min⁻¹ | 2TCM K1 (Striatum, control rat D): 8.06 ± 30.34 mL/g/min | 2TCM k2 (Striatum, control rat D): 58.0 ± 203.8 min⁻¹ | 2TCM k3 (Striatum, control rat D): 3.54 ± 188.40 min⁻¹ | 2TCM k4 (Striatum, control rat D): 0.07 ± 263.98 min⁻¹ | 1TCM BPND (Striatum, raclopride): 0.51±0.06 | 1TCM BPND change relative to control (Striatum, raclopride): -18% | 1TCM VT (Striatum, raclopride): 6.69±0.41 | 2TCM BPND (VT-based) (Striatum, raclopride): 0.41 ± 0.05 | 2TCM BPND change relative to control (Striatum, raclopride): −27% | 2TCM VT (Striatum, raclopride): 6.97±0.39 | Logan BPND (Striatum, raclopride): 0.40±0.04 | Logan BPND change relative to control (Striatum, raclopride): -24% | Logan VT (Striatum, raclopride): 6.97±0.32 | SRTM BPND (Striatum, raclopride): 0.38 ± 0.05 | SRTM BPND change relative to control (Striatum, raclopride): −26% | 2TCM BPND (VT-based) [2]: 0.41±0.05 | 2TCM BPND change relative to control [2]: -27% | SRTM BPND [2]: 0.38±0.05 | SRTM BPND change relative to control [2]: –26% | 1TCM BPND (Thalamus, control): 0.38±0.06 | 1TCM VT (Thalamus, control): 6.45±0.62 | 2TCM BPND (VT-based) (Thalamus, control): 0.33 ± 0.02 | 2TCM VT (Thalamus, control): 6.75±0.62 | Logan BPND (Thalamus, control): 0.31±0.02 | Logan VT (Thalamus, control): 6.64±0.61 | SRTM BPND (Thalamus, control): 0.28 ± 0.06 | 1TCM K1 (Thalamus, control rat A): 0.44 ± 0.02 mL/g/min | 1TCM k2 (Thalamus, control rat A): 0.06 ± 0.01 min⁻¹ | 2TCM K1 (Thalamus, control rat A): 14.0 ± 117.5 mL/g/min | 2TCM k2 (Thalamus, control rat A): 104 ± 848 min⁻¹ | 2TCM k3 (Thalamus, control rat A): 3.05 ± 820.48 min⁻¹ | 2TCM k4 (Thalamus, control rat A): 0.05 ± 961.03 min⁻¹ | 1TCM K1 (Thalamus, control rat B): 0.65 ± 0.03 mL/g/min | 1TCM k2 (Thalamus, control rat B): 0.10 ± 0.01 min⁻¹ | 2TCM K1 (Thalamus, control rat B): 0.88 ± 0.12 mL/g/min | 2TCM k2 (Thalamus, control rat B): 0.58 ± 0.58 min⁻¹ | 2TCM k3 (Thalamus, control rat B): 0.67 ± 1.63 min⁻¹ | 2TCM k4 (Thalamus, control rat B): 0.19 ± 1.99 min⁻¹ | 1TCM K1 (Thalamus, control rat C): 0.55 ± 0.02 mL/g/min | 1TCM k2 (Thalamus, control rat C): 0.09 ± 0.01 min⁻¹ | 2TCM K1 (Thalamus, control rat C): 0.71 ± 0.13 mL/g/min | 2TCM k2 (Thalamus, control rat C): 0.48 ± 0.97 min⁻¹ | 2TCM k3 (Thalamus, control rat C): 0.76 ± 3.17 min⁻¹ | 2TCM k4 (Thalamus, control rat C): 0.23 ± 3.61 min⁻¹ | 1TCM K1 (Thalamus, control rat D): 0.64 ± 0.03 mL/g/min | 1TCM k2 (Thalamus, control rat D): 0.11 ± 0.01 min⁻¹ | 2TCM K1 (Thalamus, control rat D): 3.13 ± 3.18 mL/g/min | 2TCM k2 (Thalamus, control rat D): 12.3 ± 18.9 min⁻¹ | 2TCM k3 (Thalamus, control rat D): 2.61 ± 0.96 min⁻¹ | 2TCM k4 (Thalamus, control rat D): 0.11 ± 0.02 min⁻¹ | 1TCM BPND (Thalamus, raclopride): 0.33±0.04 | 1TCM BPND change relative to control (Thalamus, raclopride): -12% | 1TCM VT (Thalamus, raclopride): 5.93±0.71 | 2TCM BPND (VT-based) (Thalamus, raclopride): 0.30 ± 0.01 | 2TCM BPND change relative to control (Thalamus, raclopride): −10% | 2TCM VT (Thalamus, raclopride): 6.44±0.60 | Logan BPND (Thalamus, raclopride): 0.28±0.005 | Logan BPND change relative to control (Thalamus, raclopride): -10% | Logan VT (Thalamus, raclopride): 6.40±0.40 | SRTM BPND (Thalamus, raclopride): 0.26 ± 0.02 | SRTM BPND change relative to control (Thalamus, raclopride): −7% | 2TCM BPND (VT-based) [3]: 0.30±0.01 | 2TCM BPND change relative to control [3]: -10% | SRTM BPND [3]: 0.26±0.02 | SRTM BPND change relative to control [3]: –7% | part of cerebellar VT potentially displaceable (D2/3R specific binding) (modified Lassen plot): 11–26% | part of striatal VT potentially displaceable (D2/3R specific binding) (modified Lassen plot): 41–55% | Striatal BPND relative to cerebellum (range depending on the estimation method): 0.51–0.63
